Measurements reported in US11471430B2, “Sphingosine analogs and use thereof against bacterial lung infections” (Yeda Research and Development Co. Ltd., priority 2018, dated 2022).

Assays:
P. aeruginosa strain 762 = P. aeruginosa strain 762 killing assay; type: cell-based; details: Pseudomonas aeruginosa; P. aeruginosa strain 762, 2 hours at 37° C., colonies counted
Protocol: Incubation of bacteria with the sphingosine analogs presented herein was carried out as follows. P. aeruginosa strain 762 was grown in LB medium at 37° C. until the early logarithmic phase (OD550 of 0.2). Bacteria were diluted in PBS (without Ca^+2 and Mg^+2) to a concentration of 5×10^3 CFU/ml. Stock solutions of sphingolipid analogs in 5 mM in 7.5% n-octyl-β-D-glucopyranoside (OGP) or in dimethyl sulfoxide (DMSO) were prepared by sonication and warming to 40° C. The sphingosine analogs presented herein were added to the bacteria (0.05-200 μM in 0.075% OGP or 1% DMSO). Bacteria were incubated with the sphingosine analogs presented herein for 2 hours at 37° C., and 200 μl of a bacteria solution plated on LB agar plates, incubated overnight at 37° C., and colonies counted.
The ability of the sphingo sine analogs presented herein to kill Pseudomonas aeruginosa in vitro, and based on the data shown below, concluded that the SPH analogs presented herein are highly efficient in killing bacteria. Compounds 791598 and 791577 were used as activity assay control references.
FIGS. 1A-D present comparative plots, showing the results of the P. aeruginosa strain 762 killing assay, conducted for sphingosine analogs presented herein.

CerS5 [1] = molecular target: T1, CerS5 (Homo sapiens (Human), UniProt Q8N5B7); assay: N-acylation by CerS5 using labeled palmitoyl CoA, relative to sphinganine; type: biochemical; details: for Rate of N-Acylation / Rate of N-Acylation (either pmol/mg/min or % of control): CerS5, labeled palmitoyl CoA; for Rate of N-Acylation: n=1-2; for N-Acylation using 14C labeled palmitoyl CoA: Yes/No, CerS5; for Rate of N-Acylation (% of control): control sphinganine = 100% acylation; for Rate of N-Acylation (either pmol/mg/min or % of control): unit not given
Protocol: (§1) N-acylation was determined by incubating homogenates with 15 μM dhSo, 20 μM defatted BSA and 0.01 uCi C16-[14C] acyl-CoA/46 μM C16 acyl-CoA in a final volume of 250 μl.
An additional assay determined whether the sphingosine analogs presented herein are N-acylated by CerS5 expressed, relative to sphinganine (control; 100% acylation), using labeled palmitoyl CoA (n=1-2).

CerS5 [2] = molecular target: T1, CerS5; assay: Inhibition of ceramide synthesis (CerS5) measured in vitro; type: biochemical
Protocol: (§2) Ceramide synthase assays were carried out as follows. Cell homogenates were incubated with 15 μM NBD-SPH, 20 μM defatted bovine serum albumin, and 50 μM fatty acyl CoA in a 20 μl reaction volume at 37° C. Reactions were terminated by addition of chloroform/methanol (1:2, v/v) and lipids extracted. Lipids were dried under N2, re-suspended in chloroform/methanol (9:1, v/v) and separated by TLC using chloroform/methanol/2M NH4OH (40:10:1, v/v/v) as the developing solvent. NBD-labelled lipids were visualized using a Typhoon 9410 variable mode imager and quantified by ImageQuantTL (GE Healthcare, Chalfont St Giles, UK).

CerS5 [3] = molecular target: T1, CerS5; assay: CerS5 activity/inhibition assay using NBD sphinganine; type: biochemical; details: read-out: CerS5 activity (percentage of control); for remaining activity at 25 µM: 25 μM compound; for remaining activity at 50 µM: 50 μM compound; for remaining activity at 75 µM: 75 μM compound
Protocol: as §2
Table 4 below presents the results for the CerS5 activity/inhibition assay using NBD sphinganine (given as percentage of control).

[4] = test system: ceramide synthases (CerS); assay: N-acylation by ceramide synthases using 14C labeled CoA; type: biochemical; details: 14C labeled CoA as a substrate; raw data not shown
Protocol: as §1
To determine whether the sphingosine analogs presented herein can be metabolized by ceramide synthases (CerS—natural sphingosine is a substrate for CerS), their N-acylation using ^14C labeled CoA as a substrate was examined.

P. aeruginosa = details: injected immediately prior to infection, or an hour after infection; cited from earlier work

T1 sequence (Q8N5B7 whole entry, species assumed): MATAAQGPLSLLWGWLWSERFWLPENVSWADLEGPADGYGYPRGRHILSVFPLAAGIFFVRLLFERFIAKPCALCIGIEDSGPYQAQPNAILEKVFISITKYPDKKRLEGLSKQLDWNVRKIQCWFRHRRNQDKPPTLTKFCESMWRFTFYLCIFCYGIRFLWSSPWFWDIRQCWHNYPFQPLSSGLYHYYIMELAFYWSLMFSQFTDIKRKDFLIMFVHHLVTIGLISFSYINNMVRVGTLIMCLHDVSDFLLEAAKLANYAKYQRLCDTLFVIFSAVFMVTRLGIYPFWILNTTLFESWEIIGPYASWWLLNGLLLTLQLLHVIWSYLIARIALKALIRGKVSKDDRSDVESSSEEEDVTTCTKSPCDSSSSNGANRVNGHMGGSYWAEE

Structure (SMILES)	EC50 (P. aeruginosa strain 762) [nM]	Rate of N-Acylation (CerS5 [1]) [pmol/mg/min]	N-Acylation using 14C labeled palmitoyl CoA (CerS5 [1])	Rate of N-Acylation (% of control) (CerS5 [1])	CerS5 activity (% of control) (CerS5 [2])	Rate of N-Acylation (either pmol/mg/min or % of control) (CerS5 [1])	remaining activity at 25 µM (CerS5 [3]) [%]	remaining activity at 50 µM (CerS5 [3]) [%]	remaining activity at 75 µM (CerS5 [3]) [%]	N-acylation by CerS (substrate or not) [4]	P. aeruginosa infection in CF mice (P. aeruginosa)
CCCCCCCCCCCCCCC[C@H](O)[C@H](CO)N(C)C [Compound 791577]	> 2500	4.7 ± 2.4	No	(0.89% of control)	92.9 ± 28.7 % of control	–	–	–	–	–	–
CCCCCCCCCCCCCCC[C@H](O)[C@H](CN)N(C)C [Compound 791578]	1440 ± 760	55.0 ± 6.0	No	(10.39% of control)	90.2 ± 16.4 % of control	–	–	–	–	–	–
CCCCCCCCCCCCCCC[C@@H](N)[C@H](CN)N(C)C [Compound 791579]	580 ± 140	4.1 ± 3.0	No	(0.77% of control)	69.2 ± 8.9 % of control	–	–	–	–	–	–
CCCCCCCCCCCCCCC[C@H](N)[C@H](CN)N(C)C [Compound 791580]	390 ± 60	6.1 ± 2.6	No	(1.15% of control)	58.1 ± 20.1 % of control	–	–	–	–	–	–
CCCCCCCCCC/C=C/CCC(N)(O)CO (centres unmarked) [Compound 791581]	1090 ± 310	4.2 ± 4.5	No	(0.79% of control)	71.5 ± 19.0 % of control	–	–	–	–	–	–
CCCCCCCCCC/C=C/CCC(N)(N)CN [Compound 791582]	540 ± 180	14.4 ± 7.7	No	(2.72% of control)	68.2 ± 10.4 % of control	–	–	–	–	–	–
CCCCCCCCCCCCCCC[C@@H](O)[C@H](N)CN [Compound 791597]	890 ± 230	18.8 ± 12.3	No	(3.55% of control)	125.0 ± 31.1 % of control	–	–	–	–	–	–
CCCCCCCCCCCCCCC[C@H](N)[C@H](N)CN [Compound 791598]	990 ± 10	10.4 ± 10.1	No	(1.97% of control)	111.3 ± 34.9 % of control	–	–	–	–	–	–
CCCCCCCC/C=C\CCCCCCCC[C@@H](O)[C@H](N)CO [Compound 791601]	420 ± 50	144.6 ± 51.7	Yes	(27.32% of control)	88.5 ± 10.1 % of control	–	–	–	–	–	–
CCCCC/C=C\C/C=C\CCCCCCCC[C@H](O)[C@@H](N)CO [Compound 791602]	–	146.9 ± 0.0	Yes	(27.76% of control)	57.3 ± 12.2 % of control	–	–	–	–	–	–
CCCCCCCCCCCCCCNC(=O)[C@H](N)CN [Compound 791993]	940 ± 322	–	–	–	–	0.98 ± 0.09 pmol/mg/min or % of control	–	–	–	–	–
CCCCCCCCCCCCCCNC(=O)[C@@H](N)CN [Compound 791994]	1310 ± 400	–	Yes	–	–	25.42 ± 6.97 pmol/mg/min or % of control	–	–	–	–	–
CCCCCCCCCCCCc1ccc(NC(=O)[C@@H](N)CN)cc1 [Compound 791995]	870 ± 91	–	No	–	–	0.14 ± 0.004 pmol/mg/min or % of control	107 ± 24	119 ± 20.9	109 ± 26.9	not substrates for CerS	–
CCCCCCCCCCCCc1ccc(NC(=O)[C@H](N)CN)cc1 [Compound 791996]	810 ± 240	–	No	–	–	0.02 ± 0.003 pmol/mg/min or % of control	96.7 ± 12.8	104 ± 21.2	105 ± 13.9	not substrates for CerS	–
CCCCCCCCCCCCCCc1ccc(NC(=O)C(N)CN)cc1 (centres unmarked) [Compound 792205]	610 ± 200	–	No	–	–	5.21 ± 1.33 pmol/mg/min or % of control	98.5 ± 18.1	92.7 ± 19	59.4 ± 12.1	–	–
CCCCCCCCCCCCCCCCc1ccc(NC(=O)[C@@H](N)CN)cc1 [Compound 792206]	1120 ± 180	–	No	–	–	3.78 ± 0.24 pmol/mg/min or % of control	76.6 ± 12.8	–	125 ± 37.4	–	–
CCCCCCCCCCCCCCCCNC(=O)C(N)CN (centres unmarked) [Compound 792208]	720 ± 260	–	–	–	–	2.81 ± 1.06 pmol/mg/min or % of control	114 ± 21.4	81.9 ± 7.15	72.7 ± 5.76	–	–
CCCCCCCCCCCCCCCCCCNC(=O)C(N)CN (centres unmarked) [Compound 792209]	> 2500	–	No	–	–	–	–	–	–	–	–
CCCCCCCCCCCCc1ccc(NC(=O)C(O)CN)cc1 (centres unmarked) [Compound 792211]	260 ± 90	–	Yes	–	–	114.21 ± 3.11 pmol/mg/min or % of control	163 ± 37.9	73.5 ± 8.98	49.8 ± 26.6	–	–
CCCCCCCCCCCCc1ccc(NC(=O)[C@@H](N)CCN)cc1 [Compound 792212]	160 ± 70	–	No	–	–	2.77 ± 0.65 pmol/mg/min or % of control	163 ± 82.3	138 ± 59	119 ± 32.8	–	–
CCCCCCCCc1ccc(CCC(N)(CO)CO)cc1 [FTY720, fingolimod]	–	–	–	–	–	–	–	–	–	–	completely blocked
CCCCCCCCCCCCCCC[C@@H](O)[C@@H](N)CO [sphinganine, reference compound]	–	–	–	–	100 ± 0 % of control	–	–	–	–	–	–
CCCCCCCCCCCCC/C=C/[C@@H](O)[C@@H](N)CO [sphingosine]	–	–	–	–	–	–	–	–	–	–	completely blocked
